# Residues, ends and D or L forms follow the SMILES beside them. *: point of attachment. Palmitoyl = CCCCCCCCCCCCCCCC(=O)*
# How the values were obtained:
# Type in all cases: physicochemical
# [1] = Approximate solubility of Compound I-1 (amorphous) in different solvents (manual dilution, visual observation); conditions: ambient laboratory temperature
# Experimental: In this Example, approximate solubility tests of Compound I-1 (amorphous) were conducted in the different solvents at ambient laboratory temperature. The solubility was also tested by manual dilution combined with visual observation. In particular, a known amount of Compound I-1 was weighed and added to a vial. A known amount of solvent was gradually added to the vial with constant stirring. The solvent addition was kept at a very slow rate to minimize any excess solvent beyond what is needed to fully dissolve the solids. In order to cross-check the solubility, a small amount of Compound I-1 was added to the vial to confirm that the solution became turbid.
# [2] = Solubility of amorphous, Form A and Form E of Compound I-1 in water (shaken at 25° C., HPLC); conditions: for Final pH: mother liquor
# Experimental: The solubility of amorphous, Form A or E of Compound I-1 in water was further studied. Specifically, about 250 mg Compound I-1 in amorphous, Forms A and E were each suspended in a 2 mL HPLC vial with 0.9 mL of water. Each suspension was then shaken at 25° C. under 1000 rpm. The suspensions were analyzed at 1 h and 24 h. In particular, at either the 1 h or 24 h time point, the slurries were centrifuged and analyzed by HPLC. The pH values of the mother liquors were measured, and the residues were characterized by XRPD.
# [3] = Stabilities of amorphous Compound I-1 (ICH guideline, XRPD)
# Experimental: Stabilities of amorphous Compound I-1 were also conducted according to ICH guideline.
# [4] = Storage stability of formulations of amorphous Compound I-1; conditions: powder from capsules; 6 month at 25° C./60% RH or 40° C./75% RH
# Experimental: This enteric coated capsule formulation was tested for stability and dissolution. […] Thus, this formulation can be storage stable.
# This capsule formulation was also tested for stability and dissolution. […] Thus, Formulation B is also storage stable.
# This capsule formulation was also tested for stability and dissolution.
# This tablet formulation was also tested for stability and dissolution.
smiles,measurement,setting,value
"CCCCCCCCCCCCCCCC(=O)N1CCC[C@H]1C(=O)N1CCC[C@H]1C(=O)NCC(=O)N[C@@H](Cc1ccc(O)cc1)C(=O)[O-].[Na+] [Compound I-1 (Amorphous), sodium palmitoyl-L-prolyl-L-prolylglycyl-L-tyrosinate] (Palmitoyl-PPGY-OH)",solubility,"[1]; 1,4-Dioxane",33.3 to 50 mg/mL
same,solubility,[1]; 1-butanol,50 to 100 mg/mL
same,solubility,[1]; 2-Methyl Tetrahydrofuran,> 100 mg/mL
same,solubility,[1]; Acetone,< 1 mg/mL
same,solubility,[1]; Acetone:H2O (1:2),50 to 100 mg/mL
same,solubility,[1]; Acetonitrile,< 1 mg/mL
same,solubility,[1]; Acetonitrile:H2O (1:1),50 to 100 mg/mL
same,solubility,[1]; Cyclohexane,< 1 mg/mL
same,solubility,[1]; DMF,20 to 33.3 mg/mL
same,solubility,[1]; DMSO,50 to 100 mg/mL
same,solubility,[1]; Ethanol,50 to 100 mg/mL
same,solubility,[1]; Ethanol:H2O (1:1),50 to 100 mg/mL
same,solubility,[1]; Ethanol:H2O (3:1),50 to 100 mg/mL
same,solubility,[1]; Ethyl acetate,< 1 mg/mL
same,solubility,[1]; Heptane,< 1 mg/mL
same,solubility,[1]; Isopropyl acetate,< 1 mg/mL
same,solubility,[1]; Isopropyl alcohol,50 to 100 mg/mL
same,solubility,[1]; Methanol,> 100 mg/mL
same,solubility,[1]; Methanol:H2O (1:1),> 100 mg/mL
same,solubility,[1]; Methanol:H2O (3:1),> 100 mg/mL
same,solubility,[1]; Methyl ethyl ketone,3.3 to 5 mg/mL
same,solubility,[1]; Methyl isobutyl ketone,1.2 to 1.4 mg/mL
same,solubility,[1]; Methyl t-butyl ether,< 1 mg/mL
same,solubility,[1]; N-methyl pyrrolidone,50 to 100 mg/mL
same,solubility,[1]; Tetrahydrofuran,> 100 mg/mL
same,solubility,[1]; Tetrahydrofuran:H2O (1:1),50 to 100 mg/mL
same,solubility,[1]; Toluene,50 to 100 mg/mL
same,solubility,[1]; Water,> 100 mg/mL
same,Final pH,"[2]; water, 25° C., time point 1 hour",9.05
same,Final pH,"[2]; water, 25° C., time point 24 hours",9.03
same,XRPD pattern (wet),"[2]; residue of the suspension in water, 25° C., time point 24 hours",Mostly D
same,Solubility at 25° C.,"[2]; water, time point 1 hour",239.1 mg/mL
same,solubility at 1 h,"[2]; water, time point 1 hour",> 200 mg/mL
same,Solubility at 25° C.,"[2]; water, time point 24 hours",180.1 mg/mL
same,solubility at 24 h,"[2]; water, time point 24 hours",~180 mg/mL
same,form transformation (XRPD),"[3]; all tested conditions (40° C./75% RH with protection from moisture, 60° C., ambient) except high humidity",no form transformation
same,form transformation (XRPD),[3]; high humidity condition for 1 week,could be transferred into Form A
same,"crystalline conversion (X-ray diffractograms, FIG. 12)",[4],no crystalline conversion was observed

# — patent publication US11739120B2, “Water soluble salts of lipidated peptides and methods for preparing and using the same” (Bridge Biotherapeutics, Inc., priority 2018, dated 2023)
